Key:
A2AR = conditions: ref [36]; cited from earlier work
Nb6E-E2-PTHR1 = assay: cell signaling assay Nb6E-E2-PTHR1; assay type: cell-based; conditions: comparison with past work ref [26]

Row | Compound | A2AR agonism (A2AR) | potency relative to past work using wild-type PTHR1 (Nb6E-E2-PTHR1)
1 | CCNC(=O)[C@H]1O[C@@H](n2cnc3c(N)nc(NCCc4ccc(CCC(=O)O)cc4)nc32)[C@H](O)[C@@H]1O [CGS21680] | potent agonist of A2AR | –
2 | PTH(1–34): prototypical PTHR1 ligand | – | potency comparable to past work using wild-type PTHR1

— publication PMC10200341 (Bioconjugate chemistry, 2022)
